Measured values as given in patent US8003796B2, “Pyridone GPR119 G protein-coupled receptor agonists” (Bristol-Myers Squibb Company, priority 2007, dated 2011).
Counter-ions that a name gives are not always drawn.

Biological target: T1, human GPR119 (Homo sapiens, UniProt Q8TDV5)
T1 construct: expressed in transfected cells; host or cells: Flp-In-T-REx 293 (tetracycline-inducible)
T1 sequence (Q8TDV5 1-335): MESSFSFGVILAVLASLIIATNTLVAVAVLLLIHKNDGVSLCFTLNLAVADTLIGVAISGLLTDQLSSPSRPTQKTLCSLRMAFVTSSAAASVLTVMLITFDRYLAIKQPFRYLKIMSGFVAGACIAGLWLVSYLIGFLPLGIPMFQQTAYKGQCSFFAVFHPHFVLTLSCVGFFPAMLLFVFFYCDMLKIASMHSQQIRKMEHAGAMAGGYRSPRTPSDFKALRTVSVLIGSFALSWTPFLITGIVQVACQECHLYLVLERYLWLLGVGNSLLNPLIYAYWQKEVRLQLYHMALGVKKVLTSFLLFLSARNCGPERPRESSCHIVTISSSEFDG
Experiment: Human Tet-inducible cAMP assay
Type: cell-based
Conditions: Flp-In-T-REx 293 tetracycline inducible cells expressing GPR119; cAMP by Hit Hunter cAMP kit; 1 hour at 37° C.; read-out: hGPR119 EC50
Description: The in vitro modulation of recombinant human GPR119 was determined as follows.
Human Tet-Inducible cAMP Assay
Cell lines expressing GPR119 are generated using the Flp-In-T-REx 293 tetracycline inducible gene expression system are cultured in culture medium comprising the following components: DMEM#11965, 10% FBS, 2 mM L-glutamine, 200 ug/ml Hygromycin B, and 15 ug/ml blasticidin.
For cAMP assays, cells are plated on 96 well plates (e.g., BD Falcon: REF 353948, black side, clear bottom, TC surface) at a density of about 4.5×10^4 cells per well in growth medium containing 1.0 ug/ml tetracycline (1.0 mg/ml stock). The cells are then incubated for 48 hours at 37° C.
Following the incubation, the growth medium is removed from the wells and the wells rinsed (once) with the assay buffer included in the Hit Hunter cAMP kit (100 μl/well). Following the wash, 20 μl of assay buffer is added to each well, followed by addition of 10 μl of a 3× concentration compound working solution. The solution is then mixed. The final concentration range of compound is from about 10^−5M to about 10^−11M. The reagents are then incubated at 37° C. at 5% CO2 for 1 hour.
The manufacturer's protocol may be followed for cAMP determination. The Hit Hunter cAMP kit protocol is outlined for the HIT-T15 cAMP assays described above.
Compounds of the present invention were tested in the Human Tet-inducible cAMP assay described immediately above and the results shown in Table 1 below were obtained.

Row | Structure (SMILES) | EC50 [nM]
1 | CCCc1cnc(N2CCC(Oc3ccn(-c4ccc(C(N)=O)cc4F)c(=O)c3)CC2)nc1 [Example 179, 3-fluoro-4-(2-oxo-4-(1-(5-propylpyrimidin-2-yl)piperidin-4-yloxy)pyridin-1(2H)-yl)benzamide, TFA salt] | 276
2 | CS(=O)(=O)c1ccc(-n2ccc(OC3CCN(C(=O)c4cnc5ccccc5n4)CC3)cc2=O)cc1 [Example 78, 1-(4-(methylsulfonyl)phenyl)-4-(1-(quinoxaline-2-carbonyl)piperidin-4-yloxy)pyridin-2(1H)-one] | 303
3 | CCCc1cnc(N2CCC(Oc3ccn(-c4ccc(S(C)(=O)=O)nc4C)c(=O)c3)CC2)nc1 [Example 206, 1-(2-methyl-6-(methylsulfonyl)pyridin-3-yl)-4-(1-(5-propylpyrimidin-2-yl)piperidin-4-yloxy)pyridin-2(1H)-one, TFA salt] | 293
4 | CS(=O)(=O)c1ccc(-n2ccc(OC3CCN(c4ncc(C5CCC5)cn4)CC3)cc2=O)c(F)c1 [Example 243, 4-(1-(5-cyclobutylpyrimidin-2-yl)piperidin-4-yloxy)-1-(2-fluoro-4-(methylsulfonyl)phenyl)pyridin-2(1H)-one] | 9
5 | N#Cc1ccc(-n2cc(Cl)c(OC3CCN(c4ncc(C5CC5)cn4)CC3)cc2=O)c(F)c1 [Example 265, 4-(5-chloro-4-(1-(5-cyclopropylpyrimidin-2-yl)piperidin-4-yloxy)-2-oxopyridin-1(2H)-yl)-3-fluorobenzonitrile] | 4
6 | CCCc1cnc(N2CCCC(Oc3ccn(-c4ccc(S(C)(=O)=O)cc4)c(=O)c3)CC2)nc1 (centres unmarked) [Example 261, 1-(4-(methylsulfonyl)phenyl)-4-(1-(5-propylpyrimidin-2-yl)azepan-4-yloxy)pyridin-2(1H)-one] | 257
7 | CCOc1ccc(OC(=O)N2CCC(Oc3ccn(-c4ccc(S(C)(=O)=O)cc4)c(=O)c3)CC2)cc1 [Example 125, 4-ethoxyphenyl 4-(1-(4-(methylsulfonyl)phenyl)-2-oxo-1,2-dihydropyridin-4-yloxy)piperidine-1-carboxylate] | 293
8 | CCCc1cnc(N2CCC(Oc3cc(C)n(-c4ccc(S(C)(=O)=O)cc4)c(=O)c3)CC2)nc1 [Example 165, 6-methyl-1-(4-(methylsulfonyl)phenyl)-4-(1-(5-propylpyrimidin-2-yl)piperidin-4-yloxy)pyridin-2(1H)-one] | 5000
9 | CC(C)OC(=O)N1CCC(Oc2ccn(-c3cncnc3)c(=O)c2)CC1 [Example 191, isopropyl 4-(2-oxo-1-(pyrimidin-5-yl)-1,2-dihydropyridin-4-yloxy)piperidine-1-carboxylate] | 5090
10 | CCCc1cnc(N2CCC(Oc3ccn(-c4ccc(C#N)cc4F)c(=O)c3)CC2)nc1 [Example 177, 3-fluoro-4-(2-oxo-4-(1-(5-propylpyrimidin-2-yl)piperidin-4-yloxy)pyridin-1(2H)-yl)benzonitrile, TFA salt] | 8
11 | CS(=O)(=O)c1ccc(-n2ccc(OC3CCN(C(=O)CCc4ccccc4)CC3)cc2=O)cc1 [Example 74, 1-(4-(methylsulfonyl)phenyl)-4-(1-(3-phenylpropanoyl)piperidin-4-yloxy)pyridin-2(1H)-one] | 275
12 | CCCc1cnc(N2CCC(Oc3ccn(-c4cncnc4)c(=O)c3)CC2)nc1 [Example 192, 4-(1-(5-propylpyrimidin-2-yl)piperidin-4-yloxy)-1-(pyrimidin-5-yl)pyridin-2(1H)-one] | 241
13 | CCCc1cnc(N2CCC(Oc3ccn(-c4ccc(S(C)(=O)=O)cc4C)c(=O)c3)CC2)nc1 [Example 178, 1-(2-methyl-4-(methylsulfonyl)phenyl)-4-(1-(5-propylpyrimidin-2-yl)piperidin-4-yloxy)pyridin-2(1H)-one] | 265
14 | CS(=O)(=O)c1ccc(-n2ccc(OC3CCN(S(=O)(=O)C4CC4)CC3)cc2=O)cc1 [Example 84, 4-(1-(cyclopropylsulfonyl)piperidin-4-yloxy)-1-(4-(methylsulfonyl)phenyl)pyridin-2(1H)-one] | 3270
15 | CCCc1cnc(N2CCC(Oc3cc(=O)n(-c4ccc(S(C)(=O)=O)c(F)c4)cc3Cl)CC2)nc1 [Example 224, 5-chloro-1-(3-fluoro-4-(methylsulfonyl)phenyl)-4-(1-(5-propylpyrimidin-2-yl)piperidin-4-yloxy)pyridin-2(1H)-one, TFA salt] | 6
16 | CS(=O)(=O)c1ccc(-n2ccc(OC3CCN(S(=O)(=O)CC(F)(F)F)CC3)cc2=O)cc1 [Example 82, 1-(4-(methylsulfonyl)phenyl)-4-(1-(2,2,2-trifluoroethylsulfonyl)piperidin-4-yloxy)pyridin-2(1H)-one] | 4030
17 | CCCc1cnc(N2CCC(Oc3ccn(-c4ccc(NC(=O)C(C)(C)C)c(F)c4)c(=O)c3)CC2)nc1 [Example 239, N-(2-fluoro-4-(2-oxo-4-(1-(5-propylpyrimidin-2-yl)piperidin-4-yloxy)pyridin-1(2H)-yl)phenyl)pivalamide] | 9
18 | COc1cccc(-n2ccc(OC3CCN(C(=O)OC(C)C)CC3)cc2=O)c1 [Example 12, isopropyl 4-(1-(3-methoxyphenyl)-2-oxo-1,2-dihydropyridin-4-yloxy)piperidine-1-carboxylate] | 3490
19 | CCCc1ccc(OC(=O)N2CCC(Oc3ccn(-c4ccc(S(C)(=O)=O)cc4)c(=O)c3)CC2)cn1 [Example 153, 6-propylpyridin-3-yl 4-(1-(4-(methylsulfonyl)phenyl)-2-oxo-1,2-dihydropyridin-4-yloxy)piperidine-1-carboxylate, TFA salt] | 273
20 | CC(C)OC(=O)N1CCC(Oc2ccn(-c3ccc(S(C)(=O)=O)nc3)c(=O)c2)CC1 [Example 189, isopropyl 4-(1-(6-(methylsulfonyl)pyridin-3-yl)-2-oxo-1,2-dihydropyridin-4-yloxy)piperidine-1-carboxylate] | 7140
21 | CS(=O)(=O)c1ccc(-n2ccc(OC3CCN(c4nc5ccccc5o4)CC3)cc2=O)cc1 [Example 51, 4-(1-(benzo[d]oxazol-2-yl)piperidin-4-yloxy)-1-(4-(methylsulfonyl)phenyl)pyridin-2(1H)-one] | 314
22 | CCCc1cnc(N2CCC(Oc3cc(=O)n(-c4ccc(C#N)c(F)c4)cc3Cl)CC2)nc1 [Example 227, 4-(5-chloro-2-oxo-4-(1-(5-propylpyrimidin-2-yl)piperidin-4-yloxy)pyridin-1(2H)-yl)-2-fluorobenzonitrile] | 1
23 | Cc1cc(OC2CCN(c3ncc(C4CC4)cn3)CC2)cc(=O)n1-c1ccc(S(C)(=O)=O)cc1 [Example 162, 4-(1-(5-cyclopropylpyrimidin-2-yl)piperidin-4-yloxy)-6-methyl-1-(4-(methylsulfonyl)phenyl)pyridin-2(1H)-one] | 5000
24 | CCCOC(=O)N1CCC(Oc2ccn(-c3ccc(S(C)(=O)=O)cc3)c(=O)c2)CC1 [Example 91, propyl 4-(1-(4-(methylsulfonyl)phenyl)-2-oxo-1,2-dihydropyridin-4-yloxy)piperidine-1-carboxylate] | 304
25 | CC(C)OC(=O)N1CCC(Oc2ccn(-c3ccc(NC(=O)C(C)C)cc3)c(=O)c2)CC1 [Example 209, isopropyl 4-(1-(4-isobutyramidophenyl)-2-oxo-1,2-dihydropyridin-4-yloxy)piperidine-1-carboxylate] | 3390
26 | CCc1cnc(N2CCC(Oc3ccn(-c4cccnc4)c(=O)c3)CC2)nc1 [Example 133, 4-(1-(5-ethylpyrimidin-2-yl)piperidin-4-yloxy)-1-(pyridin-3-yl)pyridin-2(1H)-one] | 250
27 | CCCc1cnc(N2CCC(Oc3ccn(-c4ccc(C#N)c(F)c4)c(=O)c3)CC2)nc1 [Example 199, 2-fluoro-4-(2-oxo-4-(1-(5-propylpyrimidin-2-yl)piperidin-4-yloxy)pyridin-1(2H)-yl)benzonitrile] | 7
28 | CC(C)OC(=O)N1[C@@H]2CC[C@@H]1CC(Oc1ccn(-c3ccc(S(C)(=O)=O)cc3)c(=O)c1)C2 (stereo partly drawn) [Example 27, (3-endo)-isopropyl 3-(1-(4-(methylsulfonyl)phenyl)-2-oxo-1,2-dihydropyridin-4-yloxy)-8-azabicyclo[3.2.1]octane-8-carboxylate] | 3500
29 | CCCc1cnc(N2CCC(Oc3cc(=O)n(-c4ccc(S(C)(=O)=O)cc4)cc3Cl)CC2)nc1 [Example 194, 5-chloro-1-(4-(methylsulfonyl)phenyl)-4-(1-(5-propylpyrimidin-2-yl)piperidin-4-yloxy)pyridin-2(1H)-one, TFA salt] | 5
